Columns and labels:
Format in all cases: physicochemical
[1] = degradation of ascorbic acid after addition of water or ethanol to the eutectic liquid; conditions: addition of water or ethanol up to 15%, preferably up to 10%
Description: This liquid, stable at room temperature, can be incorporated into cosmetic formulas.

[2] = color stability of vitamin C in closed and open glass flasks after 3 months at room temperature (figure 2)
[3] = degradation of vitamin C at 40°C over 16 weeks, eutectic solvent compared to water (figure 1); conditions: 5 % vitamin C in eutectic solvent (5% vitamin C, 40% betaine, 55% glycerol) compared to water, 40 degrees

degradation of the ascorbic acid [1]: without increased degradation
stability of vitamin C ([2]; 21% vitamin C in water, closed bottles): unstable
stability of vitamin C ([2]; 21% vitamin C in water, opened glass bottles): unstable
stability of vitamin C ([2]; in betaine and glycerol (21% vitamin C, 29% betaine, 50% glycerin), closed bottles): stable
degradation of vitamin C [3]: enhanced protection
SMILES: O=C1O[C@H]([C@@H](O)CO)C(O)=C1O [vitamin C, ascorbic acid]

Source: patent publication EP4011353A1 (Beiersdorf AG, priority 2020, dated 2022)
